For series [1], the target named is T1, mu-opioid receptors (MOR) (Mus musculus, UniProt P42866).
T1 construct: FLAG; expressed in transfected cells
Briefly: cell-based. It is filed as cell-based, murine.

The target in series [2] is T2, delta-opioid receptors (DOR).
T2 construct: expressed in transfected cells
It is filed as cell-based. Conditions: read-out: IC50 for the inhibition of forskolin induced cAMP in HEK-DOP cells.

A short description of series [3]: RP-HPLC retention time (read by the paper as polarity). It is filed as physicochemical. Conditions: water/acetonitrile gradient with 0.1% formic acid, MS TIC detection. The protocol:
An Agilent binary HPLC composing of an Agilent 1100 LC pump, an Agilent 1100 well plate auto-sampler (Agilent Technologies, Santa Clara, CA, USA) and a Jupiter 5 μ (C4, 300 A, 150×2.00 mm, 5 μ) RP HPLC column (Phenomenex, Torrance, CA, USA) were used for separation. The mobile phase flow rate was 200 µl/min and the volume of injection was 20 µL. The separations were performed using a binary solvent gradient; water (Milli-Q; Millipore Corporation, Bedford, MA) which contained 0.1% v/v formic acid was used as the solvent A and acetonitrile (Merck KGaA, Darmstadt, Germany) which contained 0.1% v/v formic acid (Nuplex industries Pty Ltd. (NSW, Australia) was used as the solvent B. The chromatographic separation was achieved using the gradient shown in Table 1.
An API 3000 tandem mass spectrometer equipped with a turbo ion spray was used as the detector. Detection was performed in total ion current (TIC) mode (MS1/Q1), in positive mode, within the range 200–3000 amu. The data were acquired and processed by Analyst 1.5 software (Applied Biosystems, Foster city, CA, USA). Mass spectra were obtained using: declustering potential (DF) of 16 V, focusing potential (FP) of 120 V, Entrance potential (EP) of 10 V, and Ion spray voltage (IS) of 5000 V. Structure identity of fragments was performed using the respective mass/charge (m/z) values of each peptide metabolite. Direct flow injections were carried out using Model 11 plus Harvard Syringe pump (Harvard Apparatus Inc, Holliston, MA, USA).

A short description of series [4]: Biotransformation in homogenised inflamed tissue at pH 5.5 (LC/MS, mean residence time). Conditions: for MRT: 120 min, AUMC/AUC of LC/MS peak intensity.
[5] abbreviates: incubation of BE 1-31, Jupiter C4 300 A column, 200 µl/min.
Where [6] appears, read: incubation of BE 1-31 (115 µM) in rat inflamed tissue homogenate, MES pH 5.5, 37°C.

Like-named read-outs stand apart in the source and are kept apart here. Where no end group is shown, it is not given here.

T1 sequence (P42866 whole entry): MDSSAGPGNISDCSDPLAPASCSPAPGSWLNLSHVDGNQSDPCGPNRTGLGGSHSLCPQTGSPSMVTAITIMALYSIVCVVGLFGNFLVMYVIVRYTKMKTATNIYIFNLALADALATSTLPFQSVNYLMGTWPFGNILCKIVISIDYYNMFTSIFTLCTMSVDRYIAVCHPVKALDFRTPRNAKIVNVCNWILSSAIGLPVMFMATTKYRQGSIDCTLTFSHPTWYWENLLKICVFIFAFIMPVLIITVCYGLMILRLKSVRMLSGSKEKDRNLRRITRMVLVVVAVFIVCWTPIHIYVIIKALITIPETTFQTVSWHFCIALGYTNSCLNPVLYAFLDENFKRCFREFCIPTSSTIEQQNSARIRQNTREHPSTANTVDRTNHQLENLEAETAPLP

Turning to YGGFMTSEKSQTPLVTL [BE 1–17], the “Effect of naloxone pre-treatment on cAMP inhibition through MOR” value (from here on “Effect … on cAMP inhibition through MOR”) in series [1] is listed as “inhibited by naloxone”. Moreover, the IC50 in series [2] is 25 nM. The RT in series [3] (incubation of BE 1-17, Jupiter C4 column) is on record as 24.5 min; in series [3] (incubation of BE 1-17, Jupiter C4 column, listed as BE 1-17), 24.3 min; in series [3] (setting [5]), 24.5 min. The MRT came out at 5.6 in series [4] (incubation of BE 1-17 (115 µM) in rat inflamed tissue homogenate, MES pH 5.5, 37°C) and 25 in series [4] (setting [6]). The “Incubation period after which the peptide was undetectable” value in series [4] (rat inflamed tissue homogenate, MES pH 5.5, 37°C, 115 µM peptide, LC/MS) stood at 15 min.

In the case of YGGFMTSEKSQTPLVTLFKN [BE 1–20], the “Effect … on cAMP inhibition through MOR” value in series [1] is on record as “inhibited by naloxone”. The values for the IC50 in series [1] (read-out: IC50 for the inhibition of forskolin induced cAMP in HEK-MOP cells) and in series [2] were 5 nM and 55 nM, respectively. The sequence also gave an RT in series [3] (setting [5]) of 25.2 min. Moreover, the MRT in series [4] (setting [6]) turned out to be 34.2.

On to “YGGFMTSEKSQTPLVTLFKNAIIKNVHKKGQ [BE 1–31, Beta-endorphin]”, for which, in series [1], the “Effect … on cAMP inhibition through MOR” value is “inhibited by naloxone” and the IC50 came out at 24 nM. For the same sequence, the IC50 in series [2] stood at 57 nM. The sequence also returned an RT in series [3] (setting [5]) of 25.8 min. In addition, in series [4] (setting [6]), the MRT amounted to 2.9. Besides, in series [4] (rat inflamed paw tissue homogenate (1 g/10 ml MES buffer) pH 5.5, 37°C, 115 µM peptide, LC/MS), the “Peak intensity observed (remaining) at 15 min” value came to 7.5%.

The values above are taken from PMC3949714 (PLoS ONE, 2014).
